Data as given in ChEMBL document CHEMBL1201862, “PubChem BioAssay data set” (2004).
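Growth conditions: 96-well plates. Treatment: test compound, 48 hours, 5 concentrations. Analysis: linear interpolation between bracketing concentrations; unreached endpoints set to highest concentration. Abbreviation: GI50, concentration required for 50% inhibition of growth.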 Calls of active or inactive are those of the source. Rule as the data show it: active = GI50 up to about 1.1 µM and inactive = higher.

Tests used:
Assay in all cases: growth of human tumour cells (NCI), 48 h
ACHN = tested on: ACHN
SF-268 = tested on: SF-268
IGROV-1 = tested on: IGROV-1
786-0 = tested on: 786-0
DLD-1 = tested on: DLD-1
M19-MEL = tested on: M19-MEL
HOP-62 = tested on: HOP-62
M14 = tested on: M14
XF498 = tested on: XF498
KM-20L2 = tested on: KM-20L2
RPMI-8226 = tested on: RPMI-8226
HL-60 = tested on: HL-60
DMS-114 = tested on: DMS-114
A498 = tested on: A498
NCI-H460 = tested on: NCI-H460
OVCAR-3 = tested on: OVCAR-3

Measured: GI50

O=C(O)c1cc2c3c(c1)[C@H]1C=CC[C@H]1CN3CC1CC=CC21 (some centres undefined)
inactive: ACHN > 100 µM | SF-268 > 100 µM | IGROV-1 > 100 µM | 786-0 > 100 µM | DLD-1 > 100 µM | M19-MEL > 100 µM | HOP-62 > 100 µM | M14 > 100 µM | XF498 > 100 µM | KM-20L2 > 100 µM | RPMI-8226 > 100 µM | HL-60 > 100 µM | DMS-114 > 100 µM | A498 > 100 µM | NCI-H460 > 100 µM | OVCAR-3 > 100 µM

C#Cc1c(C)c(/C=C/C(C)=C\C(=O)OC)n(C)c1C
inactive: ACHN 47.8 µM | SF-268 68.5 µM | IGROV-1 > 100 µM | 786-0 55.1 µM | DLD-1 45.4 µM | M19-MEL > 100 µM | HOP-62 71.1 µM | M14 > 100 µM | XF498 > 100 µM | KM-20L2 46.6 µM | RPMI-8226 18.8 µM | HL-60 6.65 µM | DMS-114 19 µM | A498 81.3 µM | NCI-H460 63.7 µM | OVCAR-3 96.2 µM

O=C(CCC(=O)Nc1ccccc1C(F)(F)F)N/N=C1\C(=N\NC(=O)CCC(=O)Nc2ccccc2C(F)(F)F)C(c2ccc3c(c2)OCO3)Oc2ccccc21 (centres undefined)
inactive: ACHN 6.46 µM | SF-268 3.01 µM | IGROV-1 16.9 µM | 786-0 8.63 µM | DLD-1 5.04 µM | M19-MEL 18.4 µM | HOP-62 4.28 µM | M14 > 100 µM | XF498 34.2 µM | KM-20L2 97.1 µM | RPMI-8226 4.44 µM | HL-60 3.4 µM | DMS-114 2.74 µM | A498 51.3 µM | NCI-H460 4.02 µM | OVCAR-3 3.43 µM

CC(=O)OCC1OC(n2cc(F)c(=O)[nH]c2=O)C(NC(=O)OCc2ccccc2)C(OC(C)=O)C1OC(C)=O (centres undefined)
inactive: SF-268 > 100 µM | IGROV-1 > 100 µM | DLD-1 > 100 µM | M19-MEL > 100 µM | HOP-62 > 100 µM | XF498 > 100 µM | KM-20L2 > 100 µM | RPMI-8226 > 100 µM | HL-60 > 100 µM | DMS-114 > 100 µM | A498 > 100 µM | NCI-H460 > 100 µM | OVCAR-3 > 100 µM

O=C(Nc1cccc(C(F)(F)F)c1)C(=O)C(C(=O)c1ccc(Cl)c(Cl)c1)C1OC(=O)c2ccccc21 (centres undefined)
inactive: ACHN 53.2 µM | SF-268 37.9 µM | IGROV-1 39.6 µM | 786-0 37.7 µM | DLD-1 41.9 µM | M19-MEL 18.8 µM | HOP-62 28.3 µM | M14 81.1 µM | XF498 > 100 µM | KM-20L2 39.4 µM | RPMI-8226 56 µM | HL-60 29.4 µM | DMS-114 21.6 µM | A498 21.4 µM | NCI-H460 31.8 µM | OVCAR-3 32.1 µM

COc1ccc(C23C(=O)c4ccccc4N2O[C@H]2C(=O)N(c4ccccc4)C(=O)[C@H]23)cc1 (some centres undefined)
inactive: ACHN > 100 µM | SF-268 > 100 µM | IGROV-1 > 100 µM | 786-0 > 100 µM | DLD-1 > 100 µM | M19-MEL > 100 µM | HOP-62 > 100 µM | M14 > 100 µM | XF498 > 100 µM | KM-20L2 > 100 µM | RPMI-8226 > 100 µM | HL-60 > 100 µM | DMS-114 > 100 µM | A498 > 100 µM | NCI-H460 > 100 µM | OVCAR-3 > 100 µM

Nc1ncnc2c1ncn2[C@@H]1O[C@H](COP(=O)(O)O)[C@@H](O)[C@@H]1O
inactive: SF-268 > 50 µM | IGROV-1 > 50 µM | DLD-1 > 31.6 µM | M19-MEL > 50 µM | HOP-62 > 50 µM | XF498 > 34.4 µM | KM-20L2 > 50 µM | RPMI-8226 > 50 µM | HL-60 14.6 µM | DMS-114 > 50 µM | A498 > 50 µM | NCI-H460 > 50 µM | OVCAR-3 > 50 µM

C=C1C(=O)C[C@@]23CCC[C@@]12CC(O)C3 (some centres undefined)
inactive: SF-268 43.7 µM | IGROV-1 3.93 µM | DLD-1 18.6 µM | M19-MEL 24.8 µM | HOP-62 > 63 µM | XF498 22.6 µM | KM-20L2 21.8 µM | RPMI-8226 15.6 µM | HL-60 19.5 µM | DMS-114 16.7 µM | A498 15 µM | NCI-H460 20.8 µM | OVCAR-3 13.1 µM
